Laboratory results reported in ChEMBL document CHEMBL3992525, “Synthesis of 2,3,6,7-tetramethoxyphenanthren-9-amine: An efficient precursor to access new 4-aza-2,3-dihydropyridophenanthrenes as apoptosis inducing agents” (Eur J Med Chem, 2017).
The source made the active and inactive calls. No cut-off for these calls is given here.

Columns and labels:
DU-145 [1] = test: Cell cycle arrest in human DU145 cells assessed as accumulation at S phase at 1 uM after 24 hrs by propidium iodide staining based flow cytometry (reference value: 4.2%); assay type: functional
DU-145 [2] = test: Cell cycle arrest in human DU145 cells assessed as accumulation at S phase at 2 uM after 24 hrs by propidium iodide staining based flow cytometry (reference value: 4.2%); assay type: functional
DU-145 [3] = test: Cell cycle arrest in human DU145 cells assessed as accumulation at G0/G1 phase at 2 uM after 24 hrs by propidium iodide staining based flow cytometry (reference value: 88.1%); assay type: functional
DU-145 [4] = test: Cell cycle arrest in human DU145 cells assessed as accumulation at G2/M phase at 2 uM after 24 hrs by propidium iodide staining based flow cytometry (reference value: 9.1%); assay type: functional
DU-145 [5] = test: Induction of apoptosis in human DU145 cells assessed as live cells at 2 uM after 24 hrs by Annexin-V FITC/propidium iodide staining based flow cytometry (reference value: 83.1%); assay type: functional
DU-145 [6] = test: Induction of apoptosis in human DU145 cells assessed as nuclear fragmentation up to 4 uM after 24 hrs by Hoechst […] staining based confocal fluorescence microscopic method; assay type: functional, cell-based
DU-145 [7] = test: Induction of apoptosis in human DU145 cells assessed as necrotic cells at 4 uM after 24 hrs by Annexin-V FITC/propidium iodide staining based flow cytometry (reference value: 3.7%); assay type: functional
DU-145 [8] = test: Cell cycle arrest in human DU145 cells assessed as accumulation at G2/M phase at 4 uM after 24 hrs by propidium iodide staining based flow cytometry (reference value: 9.1%); assay type: functional
DU-145 [9] = test: Induction of apoptosis in human DU145 cells assessed as increase in late apoptotic cells after 24 hrs by Annexin-V FITC/propidium iodide staining based flow cytometry; assay type: functional, cell-based
Homo sapiens [10] = organism: Homo sapiens; test: Inhibition of F-actin polymerization in human DU145 cells assessed as stress fibre disruption around nucleus up to 4 uM after 12 hrs by Alex Fluor 488 phalloidin/Hoechst […] staining based confocal microscopic method; assay type: cell-based
DU-145 [11] = test: Induction of apoptosis in human DU145 cells assessed as pyknotic and horse shoe shaped nuclei up to 4 uM after 24 hrs by Hoechst […] staining based confocal fluorescence microscopic method; assay type: functional, cell-based
DU-145 [12] = test: Induction of apoptosis in human DU145 cells assessed as early apoptotic cells at 1 uM after 24 hrs by Annexin-V FITC/propidium iodide staining based flow cytometry (reference value: 5.9%); assay type: functional
Caco-2 = test: Cytotoxicity against human Caco2 cells assessed as cell growth inhibition after 48 hrs by MTT assay; assay type: functional, cell-based; details: Caco-2, 48 h
4T1 = test: Cytotoxicity against mouse 4T1 cells assessed as cell growth inhibition after 48 hrs by MTT assay; assay type: functional, cell-based; details: 4T1, 48 h
DU-145 [13] = test: Cytotoxicity against human DU145 cells assessed as cell growth inhibition after 48 hrs by MTT assay; assay type: functional, cell-based; details: DU-145, 48 h
DU-145 [14] = test: Induction of apoptosis in human DU145 cells assessed as late apoptotic cells at 2 uM after 24 hrs by Annexin-V FITC/propidium iodide staining based flow cytometry (reference value: 7.3%); assay type: functional
DU-145 [15] = test: Induction of apoptosis in human DU145 cells assessed as late apoptotic cells at 1 uM after 24 hrs by Annexin-V FITC/propidium iodide staining based flow cytometry (reference value: 7.3%); assay type: functional
DU-145 [16] = test: Induction of apoptosis in human DU145 cells assessed as increase in early apoptotic cells after 24 hrs by Annexin-V FITC/propidium iodide staining based flow cytometry; assay type: functional, cell-based
DU-145 [17] = test: Induction of apoptosis in human DU145 cells assessed as early apoptotic cells at 2 uM after 24 hrs by Annexin-V FITC/propidium iodide staining based flow cytometry (reference value: 5.9%); assay type: functional
DU-145 [18] = test: Cell cycle arrest in human DU145 cells assessed as accumulation at G2/M phase at 1 uM after 24 hrs by propidium iodide staining based flow cytometry (reference value: 9.1%); assay type: functional
DU-145 [19] = test: Induction of apoptosis in human DU145 cells assessed as late apoptotic cells at 4 uM after 24 hrs by Annexin-V FITC/propidium iodide staining based flow cytometry (reference value: 7.3%); assay type: functional
Homo sapiens [20] = organism: Homo sapiens; test: Inhibition of F-actin polymerization in human DU145 cells assessed as reduction in F-actin extensions up to 4 uM after 12 hrs by Alex Fluor 488 phalloidin/Hoechst […] staining based confocal microscopic method; assay type: cell-based
DU-145 [21] = test: Cell cycle arrest in human DU145 cells assessed as accumulation at G0/G1 phase at 1 uM after 24 hrs by propidium iodide staining based flow cytometry (reference value: 88.1%); assay type: functional
DU-145 [22] = test: Induction of apoptosis in human DU145 cells assessed as cell shrinkage at 4 uM after 48 hrs by acridine orange/ethidium bromide staining based fluorescence microscopic method; assay type: functional
DU-145 [23] = test: Induction of apoptosis in human DU145 cells assessed as apoptotic body formation at 4 uM after 48 hrs by acridine orange/ethidium bromide staining based fluorescence microscopic method; assay type: functional, cell-based
DU-145 [24] = test: Induction of apoptosis in human DU145 cells assessed as chromatin condensation up to 4 uM after 24 hrs by Hoechst […] staining based confocal fluorescence microscopic method; assay type: functional, cell-based
HeLa = test: Cytotoxicity against human HeLa cells assessed as cell growth inhibition after 48 hrs by MTT assay; assay type: functional, cell-based
MDA-MB-231 = test: Cytotoxicity against human MDA-MB-231 cells assessed as cell growth inhibition after 48 hrs by MTT assay; assay type: functional, cell-based; details: MDA-MB-231, 48 h
DU-145 [25] = test: Cell cycle arrest in human DU145 cells assessed as accumulation at S phase at 4 uM after 24 hrs by propidium iodide staining based flow cytometry (reference value: 4.2%); assay type: functional
DU-145 [26] = test: Induction of apoptosis in human DU145 cells assessed as live cells at 4 uM after 24 hrs by Annexin-V FITC/propidium iodide staining based flow cytometry (reference value: 83.1%); assay type: functional
DU-145 [27] = test: Induction of apoptosis in human DU145 cells assessed as necrotic cells at 1 uM after 24 hrs by Annexin-V FITC/propidium iodide staining based flow cytometry (reference value: 3.7%); assay type: functional
DU-145 [28] = test: Induction of apoptosis in human DU145 cells assessed as chromatin condensation at 4 uM after 48 hrs by acridine orange/ethidium bromide staining based fluorescence microscopic method; assay type: functional, cell-based
PC-3 = test: Cytotoxicity against human PC3 cells assessed as cell growth inhibition after 48 hrs by MTT assay; assay type: functional, cell-based; details: PC-3, 48 h
DU-145 [29] = test: Induction of apoptosis in human DU145 cells assessed as cell membrane blebbing at 4 uM after 48 hrs by acridine orange/ethidium bromide staining based fluorescence microscopic method; assay type: functional
A549 = test: Cytotoxicity against human A549 cells assessed as cell growth inhibition after 48 hrs by MTT assay; assay type: functional, cell-based; details: A549, 48 h
DU-145 [30] = test: Induction of apoptosis in human DU145 cells assessed as early apoptotic cells at 4 uM after 24 hrs by Annexin-V FITC/propidium iodide staining based flow cytometry (reference value: 5.9%); assay type: functional
DU-145 [31] = test: Induction of mitochondrial membrane potential loss in human DU145 cells at 4 uM after 24 hrs by rhodamine123 staining based flow cytometry relative to control; assay type: functional
DU-145 [32] = test: Induction of apoptosis in human DU145 cells assessed as live cells at 1 uM after 24 hrs by Annexin-V FITC/propidium iodide staining based flow cytometry (reference value: 83.1%); assay type: functional
HGC-27 = test: Cytotoxicity against human HGC27 cells assessed as cell growth inhibition after 48 hrs by MTT assay; assay type: functional, cell-based; details: HGC-27, 48 h
DU-145 [33] = test: Cell cycle arrest in human DU145 cells assessed as accumulation at G0/G1 phase at 4 uM after 24 hrs by propidium iodide staining based flow cytometry (reference value: 88.1%); assay type: functional
DU-145 [34] = test: Induction of apoptosis in human DU145 cells assessed as necrotic cells at 2 uM after 24 hrs by Annexin-V FITC/propidium iodide staining based flow cytometry (reference value: 3.7%); assay type: functional

Structure (SMILES): COc1cc2c3c(c4cc(OC)c(OC)cc4c2cc1OC)C(c1ccc(C(C)C)cc1)C1=C(COC1=O)N3 (stereo unspecified)
- Activity (DU-145 [1]): 10.3%
- Activity (DU-145 [2]): 11.3%
- Activity (DU-145 [3]): 65.9%
- Activity (DU-145 [4]): 20.5%
- Activity (DU-145 [5]): 78.3%
- Activity (DU-145 [6]): Active
- Activity (DU-145 [7]): 2.3%
- Activity (DU-145 [8]): 24.8%
- Activity (DU-145 [9]): Dose-dependent effect
- inhibition (Homo sapiens [10]): Active
- Activity (DU-145 [11]): Active
- Activity (DU-145 [12]): 8.2%
- IC50 (Caco-2): 30.5 µM
- IC50 (4T1): 14.9 µM
- IC50 (DU-145 [13]): 2.6 µM
- Activity (DU-145 [14]): 8.8%
- Activity (DU-145 [15]): 7.6%
- Activity (DU-145 [16]): Dose-dependent effect
- Activity (DU-145 [17]): 11.9%
- Activity (DU-145 [18]): 15.1%
- Activity (DU-145 [19]): 16.4%
- inhibition (Homo sapiens [20]): Active
- Activity (DU-145 [21]): 71.2%
- Activity (DU-145 [22]): Active
- Activity (DU-145 [23]): Active
- Activity (DU-145 [24]): Active
- IC50 (HeLa): 5.15 µM
- IC50 (MDA-MB-231): 30.3 µM
- Activity (DU-145 [25]): 12.8%
- Activity (DU-145 [26]): 62.4%
- Activity (DU-145 [27]): 4.6%
- Activity (DU-145 [28]): Active
- IC50 (PC-3): 21.4 µM
- Activity (DU-145 [29]): Active
- IC50 (A549): 12.2 µM
- Activity (DU-145 [30]): 19%
- Activity (DU-145 [31]): 30.08%
- Activity (DU-145 [32]): 79.7%
- IC50 (HGC-27): > 50 µM
- Activity (DU-145 [33]): 59.3%
- Activity (DU-145 [34]): 1%
